Square brackets hold non-standard residues; d marks the D form. Ends that are not written are not given here. Peptide text beside a SMILES is read from it. * marks the point of attachment. 2Nal = N[C@@H](Cc1ccc2ccccc2c1)C(=O)O; 2Thi = N[C@@H](Cc1cccs1)C(=O)O; Cha = N[C@@H](CC1CCCCC1)C(=O)O; Phg = N[C@H](C(=O)O)c1ccccc1; Aib = CC(C)(N)C(=O)O; X1 = O=C(c1ccccc1S)*; Mpa = O=C(O)CCS

The text below walks through data of patent US7119182B1 (The Regents of the University of California, priority 1991, dated 2006).

In the first assay the target is T1, thrombin receptor (Homo sapiens, UniProt P25116).
T1 construct: In this assay, washed human platelets are prepared by the method of Baenzinger; endogenous in cells; host or cells: washed human platelets
T1 sequence (P25116 22-425): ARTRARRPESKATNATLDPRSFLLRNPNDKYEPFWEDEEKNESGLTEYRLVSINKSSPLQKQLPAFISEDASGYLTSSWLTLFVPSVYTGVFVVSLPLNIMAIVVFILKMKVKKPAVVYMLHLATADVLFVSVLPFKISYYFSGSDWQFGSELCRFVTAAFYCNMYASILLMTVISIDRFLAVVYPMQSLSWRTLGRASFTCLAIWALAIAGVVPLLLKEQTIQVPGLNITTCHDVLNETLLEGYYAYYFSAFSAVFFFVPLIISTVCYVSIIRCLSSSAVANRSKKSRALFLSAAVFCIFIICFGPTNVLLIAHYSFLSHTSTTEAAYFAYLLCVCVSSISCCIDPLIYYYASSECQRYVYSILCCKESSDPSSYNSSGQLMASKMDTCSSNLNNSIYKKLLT
The assay is described as follows: Platelet activation/aggregation assays in the presence of thrombin, antagonist peptides. Type of assay: cell-based. Particulars: read-out: IC50 (50% inhibition of activation or aggregation). The procedure:
Platelet Aggregation: In this assay, washed human platelets are prepared by the method of Baenzinger, M. G., Meth Enzymol (1974) 31:149–155, or as described by Charo, I. F., et al., J Clin Invest (1977) 63:866–873.
Washed platelets are suspended in modified Tyrode's buffer, pH 7.4 with 2 mM magnesium and 1 mM calcium at a concentration of 10^8 platelets/ml.
About 20 μl Chromolume® reagent (Chronolog Corporation, Havertown, Pa.) is added. In addition to measuring aggregation, ATP secretion is assessed. […] Platelet ATP secretion is measured in a lumiaggregometer as luminescence signal. […] Preincubation is not necessary for testing agonists or antagonists which interact directly with the receptor.
Platelet Aggregation Assay Using Microtiter Plates: Thrombin- or agonist-mediated platelet aggregation as measured with washed platelets in 96-well microtiter plates was performed as described (Fratantoni, J. C. et al., Am J Clin Pathol (1990) 94:613–617).
For the compound `CC(C)C[C@H](NC(=O)[C@H](Cc1ccccc1)NC(=O)CCS)C(=O)N[C@@H](CC(C)C)C(=O)N[C@@H](CCCNC(=N)N)C(=O)N[C@@H](CC(N)=O)C(=O)N1CCC[C@H]1C(=O)N[C@@H](CC(N)=O)C(=O)N[C@@H](CC(=O)O)C(=O)N[C@@H](CCCCN)C(=O)O` ([Mpa]FLLRNPNDK-OH), the concentration for half-maximal inhibition (IC50) (in general, the point on the concentration scale where inhibition reaches its midpoint) came out at 80 µM.
In the case of `N=C(N)NCCC[C@H](NC(=O)[C@H](CC1CCCCC1)NC(=O)[C@H](CC1CCCCC1)NC(=O)[C@H](Cc1ccccc1)NC(=O)CCS)C(=O)N[C@@H](CC(N)=O)C(=O)N1CCC[C@H]1C(=O)N[C@@H](CC(N)=O)C(=O)N[C@@H](CC(=O)O)C(=O)N[C@@H](CCCCN)C(=O)N[C@@H](Cc1ccc(O)cc1)C(=O)N[C@@H](CCC(=O)O)C(N)=O` ([Mpa]F[Cha][Cha]RNPNDKYE-NH2), the IC50 is 80 µM.
The same measure, in the same setting: the result for `N=C(N)NCCC[C@H](NC(=O)[C@H](CC1CCCCC1)NC(=O)[C@H](CC1CCCCC1)NC(=O)[C@H](Cc1ccccc1)NC(=O)c1ccccc1S)C(=O)N[C@@H](CCCCN)C(=O)N1CCC[C@H]1C(=O)N[C@@H](CC(N)=O)C(=O)N[C@@H](CC(=O)O)C(=O)N[C@@H](CCCCN)C(N)=O` [(2-Mba)-F(Cha)(Cha)RKPNDK-NH2] (X1-F[Cha][Cha]RKPNDK-NH2) reads 50 µM; that for `CSCCC(=O)N[C@@H](Cc1ccccc1)C(=O)N[C@@H](CC1CCCCC1)C(=O)N[C@@H](CC1CCCCC1)C(=O)N[C@@H](CCCNC(=N)N)C(=O)N[C@@H](CCCCN)C(=O)N1CCC[C@H]1C(=O)N[C@@H](CC(N)=O)C(=O)N[C@@H](CC(=O)O)C(=O)N[C@@H](CCCCN)C(N)=O` [(SMeMpr)-F(Cha)(Cha)RKPNDK-NH2] ([Mpa](Me)F[Cha][Cha]RKPNDK-NH2), 10 µM.
With `C[C@H](NC(=O)[C@H](CCCNC(=N)N)NC(=O)[C@H](CC1CCCCC1)NC(=O)[C@H](CC1CCCCC1)NC(=O)[C@H](Cc1ccccc1)NC(=O)CCS)C(=O)N1CCC[C@H]1C(=O)N[C@@H](CC(N)=O)C(=O)N[C@@H](CC(=O)O)C(=O)N[C@@H](CCCCN)C(N)=O` [Mpr-F(Cha) (Cha)RAPNDK-NH2] ([Mpa]F[Cha][Cha]RAPNDK-NH2), the IC50 was determined as 40 µM.
As to `N=C(N)NCCC[C@H](NC(=O)[C@H](CC1CCCCC1)NC(=O)[C@H](CC1CCCCC1)NC(=O)[C@H](Cc1ccccc1)NC(=O)CCS)C(=O)N[C@@H](Cc1ccccc1)C(=O)N1CCC[C@H]1C(=O)N[C@@H](CC(N)=O)C(=O)N[C@@H](CC(=O)O)C(=O)N[C@@H](CCCCN)C(N)=O` [Mpr-F(Cha) (Cha)RFPNDK-NH2] ([Mpa]F[Cha][Cha]RFPNDK-NH2), the IC50 is over 100 µM.
With `C[C@H](NC(=O)[C@H](CC(=O)O)NC(=O)[C@H](CC(N)=O)NC(=O)[C@@H]1CCCN1C(=O)[C@H](CCCCN)NC(=O)[C@H](CCCNC(=N)N)NC(=O)[C@H](CC1CCCCC1)NC(=O)[C@H](CC1CCCCC1)NC(=O)[C@H](Cc1ccccc1)NC(=O)CCS)C(N)=O` [Mpr-F(Cha) (Cha)RKPNDA-NH2] ([Mpa]F[Cha][Cha]RKPNDA-NH2), the IC50 was determined as 50 µM.
On the same count and under the same terms, the result for `C[C@H](NC(=O)[C@H](CC(N)=O)NC(=O)[C@H](CCCNC(=N)N)NC(=O)[C@H](CC1CCCCC1)NC(=O)[C@H](CC1CCCCC1)NC(=O)[C@H](Cc1ccccc1)NC(=O)CCS)C(=O)N[C@@H](CC(N)=O)C(=O)N[C@@H](CC(=O)O)C(=O)N[C@@H](CCCCN)C(N)=O` [Mpr-F(Cha) (Cha)RNANDK-NH2] ([Mpa]F[Cha][Cha]RNANDK-NH2) reads 75 µM; that for `C[C@H](NC(=O)[C@@H]1CCCN1C(=O)[C@H](CC(N)=O)NC(=O)[C@H](CCCNC(=N)N)NC(=O)[C@H](CC1CCCCC1)NC(=O)[C@H](CC1CCCCC1)NC(=O)[C@H](Cc1ccccc1)NC(=O)CCS)C(=O)N[C@@H](CC(=O)O)C(=O)N[C@@H](CCCCN)C(N)=O` [Mpr-F(Cha) (Cha)RNPADK-NH2] ([Mpa]F[Cha][Cha]RNPADK-NH2), 75 µM; that for `C[C@H](NC(=O)[C@H](CC(N)=O)NC(=O)[C@@H]1CCCN1C(=O)[C@H](CC(N)=O)NC(=O)[C@H](CCCNC(=N)N)NC(=O)[C@H](CC1CCCCC1)NC(=O)[C@H](CC1CCCCC1)NC(=O)[C@H](Cc1ccccc1)NC(=O)CCS)C(=O)N[C@@H](CCCCN)C(N)=O` [Mpr-F(Cha) (Cha)RNPNAK-NH2] ([Mpa]F[Cha][Cha]RNPNAK-NH2), over 100 µM.

The target in the next assay is T2, washed human platelets (Homo sapiens, UniProt P25116).
T2 sequence (P25116 42-425): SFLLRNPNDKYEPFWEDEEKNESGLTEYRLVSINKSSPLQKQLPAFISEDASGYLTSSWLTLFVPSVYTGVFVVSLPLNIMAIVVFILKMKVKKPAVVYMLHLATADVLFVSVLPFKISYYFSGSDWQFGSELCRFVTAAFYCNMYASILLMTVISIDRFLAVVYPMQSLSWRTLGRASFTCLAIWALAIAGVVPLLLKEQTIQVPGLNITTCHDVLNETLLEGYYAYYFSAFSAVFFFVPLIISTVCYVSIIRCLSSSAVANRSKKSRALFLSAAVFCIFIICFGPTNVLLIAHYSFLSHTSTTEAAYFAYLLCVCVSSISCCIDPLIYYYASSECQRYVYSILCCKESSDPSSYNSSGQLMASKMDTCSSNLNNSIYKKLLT
Test: not given
The following applies: read-out: EC50 (concentration required to elicit a 50% maximal aggregation); washed human platelets.
With `CC(C)C[C@H](NC(=O)[C@H](CC(C)C)NC(=O)[C@H](Cc1cccs1)NC(=O)[C@@H](N)CO)C(=O)N[C@@H](CCCNC(=N)N)C(N)=O` [S(Thi)LLR-NH2] (H-S[2Thi]LLR-NH2), the EC50 came to 7.6 µM.
Take `CC(C)C[C@H](NC(=O)[C@H](CC1CCCCC1)NC(=O)[C@H](Cc1ccccc1)NC(=O)[C@@H](N)CO)C(=O)N[C@@H](CCCNC(=N)N)C(N)=O` [SF(Cha)LR-NH2] (H-SF[Cha]LR-NH2): the EC50 came out at 1.5 µM.
On the same count and under the same terms, with `CC(C)C[C@H](NC(=O)[C@H](CC(C)C)N(C)C(=O)[C@H](Cc1ccccc1)NC(=O)[C@@H](N)CO)C(=O)N[C@@H](CCCN=C(N)N)C(N)=O` [SF(N-MeLeu)LR-NH2] the figure was over 1000 µM; with `CC(C)C[C@H](NC(=O)[C@H](Cc1ccccc1)NC(=O)[C@@H](N)CO)C(=O)N[C@@H](Cc1ccc2ccccc2c1)C(=O)N[C@@H](CCCNC(=N)N)C(=O)N[C@@H](CC(N)=O)C(N)=O` [SFL(Nal)RN-NH2] (H-SFL[2Nal]RN-NH2), 7.5 µM; with `CC(C)C[C@H](NC(=O)[C@H](CC(C)C)NC(=O)[C@H](Cc1ccccc1)NC(=O)[C@@H](N)CO)C(N)=O` [SFLL-NH2] (H-SFLL-NH2), 146 µM.
Consider `CC(C)C[C@H](NC(=O)[C@H](CC(C)C)NC(=O)[C@H](Cc1ccccc1)NC(=O)[C@@H](N)CO)C(=O)N[C@@H](CCCN=C(N)N)C(N)=O` [SFLLR-NH2], for which the EC50 turned out to be 7.5 µM.
As to SFFLRN-NH2 [SFFLRN-NH2], the EC50 turned out to be 1.5 µM.
The same measure, in the same setting: the result for SFLAR-NH2 [SFLAR-NH2] reads 146 µM.
As for SFLLRNPN, the EC50 came out at 7.6 µM.

Staying with this assay, now noted: washed human platelets.
As for DFLLR [DFLLR-NH2], the “EC50 (concentration required to elicit a 50% maximal aggregation)” value was “Inactive”.
The same measure, in the same setting: the result for FFLLR [FFLLR-NH2] reads “Inactive”.
As for FLLRNPNDKYEPF, the “EC50 (concentration required to elicit a 50% maximal aggregation)” value is on record as “Inactive”.
Consider KFLLR [KFLLR-NH2], for which the “EC50 (concentration required to elicit a 50% maximal aggregation)” value is listed as “Inactive”.
Still for that read-out and setting: with “S(Phg)LLR-NH2 (S[Phg]LLR-NH2; N-terminus assumed; SMILES CC(C)C[C@H](NC(=O)[C@H](CC(C)C)NC(=O)[C@@H](NC(=O)[C@@H](N)CO)c1ccccc1)C(=O)N[C@@H](CCCNC(=N)N)C(N)=O)” the entry was “Inactive”; with SALLRNPNDKYE, “Inactive”; with “SF(Aib)LRN-NH2 (SF[Aib]LRN-NH2; N-terminus assumed; SMILES CC(C)C[C@H](NC(=O)C(C)(C)NC(=O)[C@H](Cc1ccccc1)NC(=O)[C@@H](N)CO)C(=O)N[C@@H](CCCNC(=N)N)C(=O)N[C@@H](CC(N)=O)C(N)=O)”, “Inactive”.
The same measure, in the same setting: the result for “SF(D-Ala)LR-NH2 (SF[dA]LR-NH2; N-terminus assumed; SMILES CC(C)C[C@H](NC(=O)[C@@H](C)NC(=O)[C@H](Cc1ccccc1)NC(=O)[C@@H](N)CO)C(=O)N[C@@H](CCCNC(=N)N)C(N)=O)” reads “Inactive”; that for “SF(b-Ala)LRN-NH2 (SFXLRN; beta-Ala at position 3; C-terminal amide)”, “Inactive”; that for SFDLR [SFDLR-NH2], “Inactive”.
Still for that read-out and setting: with SFLARNPNDKYE the entry was “Inactive”; with SFLER [SFLER-NH2], “Inactive”; with SFLLDN [SFLLDN-NH2], “Inactive”.
Turning to SFLLRNPNDYKE, the “EC50 (concentration required to elicit a 50% maximal aggregation)” value is on record as “Inactive”.
On to SFLPR [SFLPR-NH2], for which the “EC50 (concentration required to elicit a 50% maximal aggregation)” value is recorded as “Inactive”.
Take SLLLR [SLLLR-NH2]: the “EC50 (concentration required to elicit a 50% maximal aggregation)” value is listed as “Inactive”.
